Measurements: PMC6030096, “Synergy of Physico-chemical and Biological Experiments for Developing a Cyclooxygenase-2 Inhibitor” (Scientific Reports, 2018)
Where two headings read alike, the source gives them in different places.

Legend:
COX-2 = biological target: T1, COX-2 (Homo sapiens, UniProt P35354); assay: Human whole blood assay for COX-2 (LPS stimulated PGE2); format: cell-based; set-up: endogenous in cells; host or cells: human whole blood, aspirin-pretreated, LPS-stimulated; conditions: final conc 1 µM, LPS 10 µg mL^−1
T1 sequence (P35354 18-604): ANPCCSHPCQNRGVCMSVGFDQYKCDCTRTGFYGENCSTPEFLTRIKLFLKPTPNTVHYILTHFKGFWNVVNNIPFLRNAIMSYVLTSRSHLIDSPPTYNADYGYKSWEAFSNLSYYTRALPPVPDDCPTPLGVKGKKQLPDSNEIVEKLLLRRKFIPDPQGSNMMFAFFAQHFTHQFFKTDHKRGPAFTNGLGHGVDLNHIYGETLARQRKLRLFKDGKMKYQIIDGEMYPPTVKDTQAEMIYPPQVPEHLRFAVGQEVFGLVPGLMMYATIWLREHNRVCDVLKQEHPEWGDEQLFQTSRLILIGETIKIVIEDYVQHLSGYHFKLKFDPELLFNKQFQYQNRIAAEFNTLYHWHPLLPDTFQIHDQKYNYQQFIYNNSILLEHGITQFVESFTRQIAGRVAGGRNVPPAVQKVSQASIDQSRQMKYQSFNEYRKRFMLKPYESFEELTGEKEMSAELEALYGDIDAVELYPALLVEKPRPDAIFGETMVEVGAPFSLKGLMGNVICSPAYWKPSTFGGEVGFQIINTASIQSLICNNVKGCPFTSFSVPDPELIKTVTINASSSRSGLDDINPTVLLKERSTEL
Procedure: The use of human blood for the whole blood assay was duly approved by the institutional ethical committee of the University for human subjects. Production of prostaglandin PGE2 during lipopolysaccharide (LPS) stimulated whole blood was used to quantify COX-2 inhibitory activity whereas calcium ionophore (A23187) stimulated thromboxane (TxB2) production was used to measure COX-1 inhibitory activity of the compounds.
COX-2 assay was performed by inactivating COX-1 with 50 µL aspirin (10 µg/mL) per 400 µL of blood sample.

[1] = biological target: T2, 5-LOX (Soybean lipoxygenase) (Glycine max, UniProt P08170); assay: Lipoxygenase inhibitory activity assay; format: biochemical
T2 construct: purchased Cayman Chemical Co. 760700
T2 sequence (P08170 1-839): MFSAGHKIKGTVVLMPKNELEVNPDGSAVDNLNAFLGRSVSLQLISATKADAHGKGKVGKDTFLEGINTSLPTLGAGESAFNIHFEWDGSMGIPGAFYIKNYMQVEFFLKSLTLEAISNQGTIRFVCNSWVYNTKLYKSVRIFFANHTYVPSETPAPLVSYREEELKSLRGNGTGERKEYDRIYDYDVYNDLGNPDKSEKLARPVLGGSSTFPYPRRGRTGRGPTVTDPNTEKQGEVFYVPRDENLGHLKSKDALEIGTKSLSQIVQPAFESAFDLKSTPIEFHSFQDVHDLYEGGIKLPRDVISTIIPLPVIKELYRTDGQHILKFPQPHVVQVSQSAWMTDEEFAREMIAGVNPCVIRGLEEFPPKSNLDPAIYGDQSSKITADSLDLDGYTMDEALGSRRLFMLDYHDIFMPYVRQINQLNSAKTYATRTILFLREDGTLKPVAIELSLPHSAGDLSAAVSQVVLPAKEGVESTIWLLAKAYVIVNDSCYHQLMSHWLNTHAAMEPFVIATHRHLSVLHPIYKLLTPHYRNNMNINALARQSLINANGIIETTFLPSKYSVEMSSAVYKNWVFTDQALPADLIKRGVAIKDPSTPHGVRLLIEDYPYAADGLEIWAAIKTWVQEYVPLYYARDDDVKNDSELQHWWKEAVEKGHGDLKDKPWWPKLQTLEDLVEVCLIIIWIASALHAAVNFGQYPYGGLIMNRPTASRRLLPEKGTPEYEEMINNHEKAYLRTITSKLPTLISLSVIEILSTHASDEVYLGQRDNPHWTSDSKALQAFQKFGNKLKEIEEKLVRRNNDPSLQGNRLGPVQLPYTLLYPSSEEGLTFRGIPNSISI
Procedure: 10 µL of the compound of each concentration was mixed with 90 µL 5-LOX (Soybean lipoxygenase in assay buffer) in the specified wells of the 96-well plate. Two wells containing assay buffer and AA acted as blanks whereas four wells, each carrying enzyme and AA, were positive controls. 10 µL AA was added to each test well and the plate was shaken for 5 min. Chromogen (100 µL) was added to each well and the plate was again shaken for 5 min. The absorbance of each well at 490 nm was recorded on microplate scanning spectrophotometer. As per the protocol given with the assay kit, the 5-LOX inhibitory activity for each compound at each concentration was determined using the mean of the two values (duplicate experiments) with deviation <5%.

[2] = soybean lipoxygenase, duplicate, read-out: IC50 5-LOX

O=C1Nc2ccccc2C1=Cc1cn(C[C@H](O)Cn2c3ccccc3c(=O)c3ccccc32)c2ccccc12 [(S)-3c]
Production of PGE2, +LPS (COX-2): 0.97 ± 0.09 ng/mL | IC50 [1, 2]: 500 ± 28 nM

O=C1NC(=O)C(=Cc2cn(CCCn3c4ccccc4c(=O)c4ccccc43)c3ccccc23)C(=O)N1 [Compound 4a]
Production of PGE2, +LPS (COX-2): 1.00 ± 0.13 ng/mL | IC50 [1]: 200 ± 10 nM

O=C1Nc2ccccc2C1=Cc1cn(CCCn2c3ccccc3c(=O)c3ccccc32)c2ccccc12 [Compound 4c]
Production of PGE2, +LPS (COX-2): 1.01 ± 0.14 ng/mL | IC50 [1, 2]: 100 ± 80 nM
